# Assay: solvent given as SMILES
structure (smiles),measurement,setting,value
COC(=O)/C(C#N)=C/c1cn(-c2ccccc2)nc1-c1ccc([N+](=O)[O-])cc1,absorption maximum,in C1CCOC1,333 nm
same,absorption maximum,in C1COCCO1,333 nm
same,absorption maximum,in CCO,335 nm
same,absorption maximum,in CCOC(C)=O,330 nm
same,absorption maximum,in CN(C)C=O,330 nm
same,absorption maximum,in CO,330 nm
same,absorption maximum,in CS(C)=O,330 nm
same,absorption maximum,in Cc1ccccc1,347 nm
same,absorption maximum,in ClC(Cl)Cl,339 nm
c1cc2c([nH]c3c4[nH]c5sccc5c4c4nsnc4c23)s1,absorption maximum,in C1CCOC1,420 nm
same,absorption maximum,in CCOC(C)=O,414 nm
same,absorption maximum,in CN(C)C=O,423 nm
same,absorption maximum,in Cc1ccccc1,411 nm
same,absorption maximum,in ClCCl,415 nm
Clc1ccc(/C=C/c2ccncn2)cc1,absorption maximum,in ClCCl,310 nm
CCOC(=O)c1c(-c2cc3ccccc3oc2=O)nn(-c2ccc(Cl)cc2)c1C(=O)OCC,absorption maximum,in ClCCl,323 nm
CC(C)(C)c1ccc2c(c1)c1cc(C(C)(C)C)ccc1n2-c1ccc(C#Cc2ccc3c4ccc(C#Cc5ccc(C=O)cc5)cc4n(-c4ccc(C(F)(F)F)cc4)c3c2)cc1,absorption maximum,in ClCCl,377 nm
CSc1ccc2c(c1)N(CCCN1CCN(C)CN1C)c1ccccc1S2,absorption maximum,in CC#N,316 nm
same,absorption maximum,in CO,314 nm
same,absorption maximum,in O,312 nm
CCn1c2ccccc2c2c(N(c3ccccc3)c3ccccc3)cccc21,absorption maximum,in ClCCl,357 nm
Clc1cnc2nn3ccccc3c2n1,absorption maximum,in C1CCOC1,404 nm
O=[N+]([O-])c1ccc(-c2nc(/C=C/c3ccc(Cl)cc3)c(/C=C/c3ccc(Cl)cc3)[nH]2)cc1,absorption maximum,in ClCCl,425 nm
O=C1CC(c2ccc(C(F)(F)F)cc2)c2c(c3ccccc3c3nc4ccccc4nc23)O1 (centres undefined),absorption maximum,in ClC(Cl)Cl,409 nm
Cc1cccc2nc(-c3cc(=O)c(OCc4ccccc4)co3)c(NC3CCCCC3)n12,absorption maximum,in ClCCl,352 nm
c1ccc2c(c1)c1ccccc1c1ncncc21,absorption maximum,in ClCCl,346 nm
c1ccc(N2N=C(c3cccc4ccccc34)CC2c2ccc3ccc4cccc5ccc2c3c45)cc1 (centres undefined),absorption maximum,in ClCCl,391 nm
CN1c2ccc(C(=O)c3ccccc3)cc2Sc2cc(C(=O)c3ccccc3)ccc21,absorption maximum,in C1CCCCC1,390 nm
same,absorption maximum,in C1CCOC1,402 nm
same,absorption maximum,in CN(C)C=O,407 nm
same,absorption maximum,in Cc1ccccc1,405 nm
same,absorption maximum,in ClC(Cl)Cl,407 nm
same,absorption maximum,in ClCCl,408 nm
C[Si](C)(C)c1ccc(-c2nc3ccccc3n2-c2ccccc2)cc1,absorption maximum,in ClCCl,301 nm
COc1ccc(C2=[N+]3C(=Nc4c(-c5cc(OC)c(OC)c(OC)c5)c(-c5ccc(C(C)(C)C)cc5)c(-c5ccc(OC)cc5)n4[B-]3(F)F)C(c3cc(OC)c(OC)c(OC)c3)=C2c2ccc(C(C)(C)C)cc2)cc1,absorption maximum,in Cc1ccccc1,694 nm
COOCc1noc(-c2ccccc2)c1Cl,absorption maximum,in C1CCCCC1,277 nm
CCC1=C(C)C(=O)n2c1cc1c(CCC(=O)O)c(C)c(C)n1c2=O,absorption maximum,in CC#N,416 nm
same,absorption maximum,in CC(C)=O,415 nm
same,absorption maximum,in CO,421 nm
same,absorption maximum,in CS(C)=O,421 nm
same,absorption maximum,in ClC(Cl)Cl,423 nm
same,absorption maximum,in c1ccccc1,419 nm
c1ccc2c(c1)-c1ccccc1C21c2ccccc2-c2c1c1c3ccccc3ccc1c1ccccc21,absorption maximum,in C1CCOC1,377 nm
CCN(C(C)=O)c1cc2c(cc1C)C(c1ccccc1C(=O)O)=C1CCCC(/C=C/C3=[N+](C)c4ccccc4C3(C)C)=C1O2,absorption maximum,in CCO,656 nm
CC(C)[Si](C#Cc1c2nc3c(nc2c(C#C[Si](C(C)C)(C(C)C)C(C)C)c2nc4ccccc4nc12)C1c2ccccc2C3c2ccccc21)(C(C)C)C(C)C,absorption maximum,in CCCCCC,551 nm
COc1nc(Cl)nc(Nc2ccc3cc4ccccc4cc3c2)n1,absorption maximum,in C1COCCO1,394 nm
same,absorption maximum,in CC#N,397 nm
same,absorption maximum,in CCCCOCCCC,396 nm
same,absorption maximum,in CCOC(C)=O,398 nm
[BH3-][P+]1(c2ccccc2)c2ccccc2-c2sc3ccccc3c21 (centres undefined),absorption maximum,in C1CCCCC1,324 nm
same,absorption maximum,in CC#N,323 nm
same,absorption maximum,in CCO,323 nm
same,absorption maximum,in ClCCl,325 nm
CC[N+]1=C(/C=C/C=C/C=C/C=C2/N(CCCCCC(=O)O)c3ccccc3C2(C)C)C(C)(C)c2cc(S(=O)(=O)[O-])ccc21,absorption maximum,in CO,751 nm
same,absorption maximum,in O,745 nm
N#CC(C#N)=C(c1cccc(N(c2ccccc2)c2ccccc2)c1)c1cccc(N(c2ccccc2)c2ccccc2)c1,absorption maximum,in C1CCCCC1,367.69 nm
same,absorption maximum,in CC(C)=O,371.43 nm
same,absorption maximum,in CN(C)C=O,374.84 nm
same,absorption maximum,in Cc1ccccc1,374.84 nm
same,absorption maximum,in ClC(Cl)Cl,382.14 nm
CCOc1ccc2c(-c3nc(-c4cccc(Br)c4)no3)cc(=O)oc2c1,absorption maximum,in CCO,388 nm
same,absorption maximum,in ClC(Cl)Cl,403 nm
c1ccc(-c2nnc(-c3cc(-n4c5ccccc5c5ccccc54)c(-n4c5ccccc5c5ccccc54)cc3-c3nnc(-c4ccccc4)o3)o2)cc1,absorption maximum,in ClCCl,361 nm
COC(=O)c1cc(=O)n(C)c2cc(-c3ccc(OC)cc3)sc12,absorption maximum,in C1CCOC1,402 nm
same,absorption maximum,in CC#N,396 nm
same,absorption maximum,in CN(C)C=O,402 nm
same,absorption maximum,in CO,396 nm
same,absorption maximum,in CS(C)=O,404 nm
same,absorption maximum,in Cc1ccccc1,402 nm

# From the Deep4Chem optical property database
